Source: patent US10030020B2, “Spirocycle compounds and methods of making and using same” (Abide Therapeutics, Inc., priority 2016, dated 2018)

How the values were obtained:
MAGL [1] = target: T1, MAGL (Mus musculus (Mouse), UniProt O35678); experiment: Mouse brain proteomes from inhibitor treated mice (oral gavage, sacrificed 4 h after administration, ABPP analysis); assay type: in vivo, mouse (C57Bl/6J); conditions: 5 mg/kg oral gavage
How it was run: (§1)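 Wild-type C57Bl/6J mice; p.o. gavage, vehicle e.g. PEG400/EtOH/PBS 7/2/1; 5 mg/kg. Brain harvested 4 h post-dose, proteome profiled by ABPP. Read-out: % inhibition.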

ABHD6 [2] = target: T2, ABHD6 (Mus musculus (Mouse), UniProt Q8R2Y0); experiment: In vitro competitive activity-based protein profiling (mouse brain membrane fraction or cell lysates), ABHD6 band; assay type: biochemical; conditions: mouse proteome; for inhibition at 1 µM: read-out: ABHD6 % Inh 1 μM (mouse); for IC50: competitive ABPP
T2 sequence (Q8R2Y0 whole entry): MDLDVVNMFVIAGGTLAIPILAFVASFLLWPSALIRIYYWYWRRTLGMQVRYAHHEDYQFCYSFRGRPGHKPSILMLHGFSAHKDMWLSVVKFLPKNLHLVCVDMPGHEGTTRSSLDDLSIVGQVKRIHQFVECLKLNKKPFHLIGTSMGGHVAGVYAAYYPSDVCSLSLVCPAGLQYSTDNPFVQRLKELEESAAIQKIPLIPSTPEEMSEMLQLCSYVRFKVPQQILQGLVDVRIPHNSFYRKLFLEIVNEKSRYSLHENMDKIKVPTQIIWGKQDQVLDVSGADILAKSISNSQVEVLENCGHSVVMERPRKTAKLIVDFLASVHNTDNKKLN
How it was run: (§2)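 Competitive ABPP: proteome 1.0 mg/mL protein + inhibitor, 30 min, 37° C; FP-Rh probe (stock 50 μM in DMSO) added, 30 min, 37° C; SDS quench, SDS-PAGE, fluorescent band intensity read.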

FAAH [3] = target: T3, FAAH (Mus musculus (Mouse), UniProt O08914); experiment: Mouse brain proteomes from inhibitor treated mice (oral gavage, sacrificed 4 h after administration, ABPP analysis), FAAH; assay type: in vivo, mouse (C57Bl/6J); conditions: 5 mg/kg oral gavage
T3 sequence (O08914 whole entry): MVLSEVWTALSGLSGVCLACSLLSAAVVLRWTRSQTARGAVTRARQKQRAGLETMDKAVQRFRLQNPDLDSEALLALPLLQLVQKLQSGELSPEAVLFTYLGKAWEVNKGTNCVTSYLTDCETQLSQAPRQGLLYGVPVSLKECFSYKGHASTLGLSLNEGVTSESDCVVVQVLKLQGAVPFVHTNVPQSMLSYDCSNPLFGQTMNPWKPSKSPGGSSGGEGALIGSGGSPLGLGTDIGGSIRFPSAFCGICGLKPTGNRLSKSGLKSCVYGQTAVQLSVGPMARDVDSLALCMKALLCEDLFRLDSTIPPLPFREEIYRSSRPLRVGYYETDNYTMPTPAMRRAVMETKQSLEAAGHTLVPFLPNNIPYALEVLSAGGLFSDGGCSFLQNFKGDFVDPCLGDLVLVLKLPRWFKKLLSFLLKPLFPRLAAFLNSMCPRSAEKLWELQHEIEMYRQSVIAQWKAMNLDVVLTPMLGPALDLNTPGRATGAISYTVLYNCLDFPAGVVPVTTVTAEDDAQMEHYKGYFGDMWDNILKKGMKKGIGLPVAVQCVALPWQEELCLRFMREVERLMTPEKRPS
How it was run: as §1

MAGL [4] = target: T1, MAGL; experiment: In vitro competitive activity-based protein profiling (mouse brain membrane fraction or cell lysates), MAGL band; assay type: biochemical; conditions: mouse proteome; for inhibition at 1 µM: read-out: MAGL % Inh 1 μM (mouse); for IC50: competitive ABPP
Description: In Vitro Competitive Activity-Based Protein Profiling.
Proteomes (mouse brain membrane fraction or cell lysates) (50 μL, 1.0 mg/mL total protein concentration) were preincubated with varying concentrations of inhibitors at 37° C. After 30 min, FP—Rh (1.0 μL, 50 μM in DMSO) was added and the mixture was incubated for another 30 min at 37° C. Reactions were quenched with SDS loading buffer (50 μL-4×) and run on SDS-PAGE.

FAAH [5] = target: T3, FAAH; experiment: In vitro competitive activity-based protein profiling (mouse brain membrane fraction or cell lysates), FAAH band; assay type: biochemical; conditions: mouse proteome; for inhibition at 1 µM: read-out: FAAH % Inh 1 μM (mouse); for IC50: competitive ABPP
How it was run: as §2

MAGL [6] = target: MAGL (Homo sapiens (Human), UniProt Q99685); experiment: In vitro competitive activity-based protein profiling (human prefrontal cortex or cell membrane fractions; hMAGL expressed in HEK293T cells); assay type: biochemical; conditions: human proteome, competitive ABPP
MAGL (Homo sapiens (Human), UniProt Q99685), sequence (Q99685 whole entry): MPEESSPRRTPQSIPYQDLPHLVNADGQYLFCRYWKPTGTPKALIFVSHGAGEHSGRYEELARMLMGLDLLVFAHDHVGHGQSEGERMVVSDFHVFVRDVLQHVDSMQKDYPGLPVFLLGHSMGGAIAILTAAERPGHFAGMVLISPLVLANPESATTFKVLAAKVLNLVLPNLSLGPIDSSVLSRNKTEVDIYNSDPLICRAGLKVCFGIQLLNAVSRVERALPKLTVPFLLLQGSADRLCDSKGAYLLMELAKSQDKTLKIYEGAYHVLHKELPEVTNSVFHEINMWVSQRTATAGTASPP
Description: In Vitro Competitive Activity-Based Protein Profiling (Human).
Proteomes (human prefrontal cortex or cell membrane fractions) (50 μL, 1.0-2.0 mg/mL total protein concentration) were preincubated with varying concentrations of inhibitors at 37° C. After 30 min, FP—Rh or JW912 (1.0 μL, 50 μM in DMSO) was added and the mixture was incubated for another 30 min at room temperature. Reactions were quenched with SDS loading buffer (15 μL-4×) and run on SDS-PAGE.
Recombinant Expression of Human MAGL in HEK293T Cells.
Cell lysates were diluted with mock proteomes for use in competitive ABPP experiments.

ABHD6 [7] = target: T2, ABHD6; experiment: Mouse brain proteomes from inhibitor treated mice (oral gavage, sacrificed 4 h after administration, ABPP analysis), ABHD6; assay type: in vivo, mouse (C57Bl/6J); conditions: 5 mg/kg oral gavage
How it was run: as §1

T1 sequence (O35678 whole entry): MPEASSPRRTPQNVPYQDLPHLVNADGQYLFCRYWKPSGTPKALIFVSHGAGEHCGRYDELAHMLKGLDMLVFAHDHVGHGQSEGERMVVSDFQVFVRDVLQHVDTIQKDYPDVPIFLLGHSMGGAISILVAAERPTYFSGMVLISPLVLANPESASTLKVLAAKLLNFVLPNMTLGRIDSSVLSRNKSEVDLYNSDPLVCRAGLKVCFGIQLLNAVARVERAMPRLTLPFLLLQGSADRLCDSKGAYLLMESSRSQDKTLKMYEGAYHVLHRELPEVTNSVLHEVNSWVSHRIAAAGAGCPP

Structure (SMILES) | MAGL % Inh 5 mg/kg (mouse) (MAGL [1]) | inhibition at 1 µM (ABHD6 [2]) [%] | IC50 (ABHD6 [2]) [nM] | FAAH % Inh 5 mg/kg (mouse) (FAAH [3]) | inhibition at 1 µM (MAGL [4]) [%] | IC50 (MAGL [4]) [nM] | inhibition at 1 µM (FAAH [5]) [%] | IC50 (FAAH [5]) [nM] | IC50 (MAGL [6]) [nM] | ABHD6 % Inh 5 mg/kg (mouse) (ABHD6 [7])
O=C(O)c1cc(CN2CCCC23CCN(C(=O)OC(C(F)(F)F)C(F)(F)F)CC3)ccc1C(F)(F)F [Example 179, 5-((8-((1,1,1,3,3,3-Hexafluoropropan-2-yloxy)carbonyl)-1,8-diazaspiro[4.5]decan-1-yl)methyl)-2-(trifluoromethyl)benzoic acid] | ### (### is ≥75%) | < 25 | > 1000 | ## (## is equal to or greater than 25% but less than 75%) | > 75 | 100 to 1000 | < 25 | > 1000 | < 100 | # (# is <25%)
CS(=O)(=O)C1CCN(c2cc(C(F)(F)F)ccc2CN2CCCC23CCN(C(=O)OC(C(F)(F)F)C(F)(F)F)CC3)C1 (stereo not drawn) [Example 193, 1,1,1,3,3,3-Hexafluoropropan-2-yl 1-(2-(3-(methylsulfonyl)pyrrolidin-1-yl)-4-(trifluoromethyl)benzyl)-1,8-diazaspiro[4.5]decane-8-carboxylate] | ## (## is equal to or greater than 25% but less than 75%) | < 25 | – | # (# is <25%) | > 75 | – | < 25 | – | < 100 | # (# is <25%)
O=C(O)C1CCN(Cc2cc(Cl)cc(CN3CCCC34CCN(C(=O)OC(C(F)(F)F)C(F)(F)F)CC4)c2)CC1 [Example 194, 1-(3-Chloro-5-((8-(((1,1,1,3,3,3-hexafluoropropan-2-yl)oxy)carbonyl)-1,8-diazaspiro[4.5]decan-1-yl)methyl)benzyl)piperidine-4-carboxylic acid] | ## (## is equal to or greater than 25% but less than 75%) | < 25 | – | # (# is <25%) | > 75 | – | < 25 | – | < 100 | # (# is <25%)
CC1(C(=O)O)CN(c2cc(CN3CCCC34CCN(C(=O)OC(C(F)(F)F)C(F)(F)F)CC4)cc(C(F)(F)F)c2)CCO1 (stereo not drawn) [Example 195, 4-(3-((8-(((1,1,1,3,3,3-hexafluoropropan-2-yl)oxy)carbonyl)-1,8-diazaspiro[4.5]decan-1-yl)methyl)-5-(trifluoromethyl)phenyl)-2-methylmorpholine-2-carboxylic acid] | # (# is <25%) | < 25 | > 1000 | # (# is <25%) | > 75 | < 100 | < 25 | > 1000 | < 100 | # (# is <25%)
O=C(O)[C@@H]1CCCCN1c1cc(CN2CCCC23CCN(C(=O)OC(C(F)(F)F)C(F)(F)F)CC3)cc(C(F)(F)F)c1 [Example 196, (S)-1-(3-((8-(((1,1,1,3,3,3-Hexafluoropropan-2-yl)oxy)carbonyl)-1,8-diazaspiro[4.5]decan-1-yl)methyl)-5-(trifluoromethyl)phenyl)piperidine-2-carboxylic acid] | ### (### is ≥75%) | < 25 | – | # (# is <25%) | > 75 | – | < 25 | – | < 100 | # (# is <25%)
O=C(O)C1CN(c2cc(C(F)(F)F)ccc2CN2CCCC23CCN(C(=O)OC(C(F)(F)F)C(F)(F)F)CC3)CCO1 (stereo not drawn) [Example 197, 4-(2-((8-(((1,1,1,3,3,3-Hexafluoropropan-2-yl)oxy)carbonyl)-1,8-diazaspiro[4.5]decan-1-yl)methyl)-5-(trifluoromethyl)phenyl)morpholine-2-carboxylic acid] | # (# is <25%) | 25 to 75 | > 1000 | # (# is <25%) | > 75 | 100 to 1000 | < 25 | > 1000 | < 100 | # (# is <25%)
